This is an account of results in patent US7674887B2, “Thrombopoietin mimetics” (GlaxoSmithKline LLC, priority 2000, dated 2010).

One may read the melting point as the temperature of the solid-liquid transition. The pEC50 is the negative decadic logarithm of the EC50, by convention in mol/L. Read a high pEC50 as a small EC50.

Structures are written as SMILES. pEC50: −log10 of the molar value.

The test system of one series is human UT7TPO cell line. Description: Proliferation assay using the human UT7TPO cell line. The format is cell-based. To be noted: UT7TPO cells. From the text:
Proliferation Assay Some of the more preferred compounds of this invention were active in an in vitro proliferation assay using the human UT7TPO cell line. UT7TPO cells are a human megakaryoblastic cell line that express Tpo-R, whose survival and growth is dependent on the presence of TPO (Komatsu et al. Blood 1996, 87,4552).

In the case of `CC1=NN(c2ccc(C)c(C)c2)C(=O)C1=NNc1ccc(-c2ccc(C(=O)O)cc2)cc1O` (hydrate or solvate) [Example 1, 4′-{N′-[1-(3,4-dimethylphenyl)-3-methyl-5-oxo-1,5-dihydropyrazol-4-ylidene]hydrazino}-3′-hydroxybiphenyl-4-carboxylic acid], the melting point was 280 °C (dec.).
As for `CC1=NN(c2ccc(C(C)(C)C)cc2)C(=O)C1=NNc1cccc(-c2cccc(C(=O)O)c2)c1O` (hydrate or solvate) [Example 4, 3′-{N′-[1-(4-tert-butylphenyl)-3-methyl-5-oxo-1,5-dihydropyrazol-4-ylidene]hydrazino}-2′-hydroxybiphenyl-3-carboxylic acid], the melting point was 145 °C (dec.).
For the molecule `CC1=NN(c2ccc(C)c(C)c2)C(=O)C1=NNc1ccc(-c2cccc(C(=O)O)c2)cc1O` [Example 2, 4′-{N′-[1-(3,4-dimethylphenyl)-3-methyl-5-oxo-1,5-dihydropyrazol-4-ylidene]hydrazino}-3′-hydroxybiphenyl-3-carboxylic acid], the melting point was 282 °C (dec.).
`CC1=NN(c2ccc(C)c(C)c2)C(=O)C1=NNc1cccc(-c2cccc(C(=O)O)c2)c1O` [Example 3, 3′-{N′-[1-(3,4-dimethylphenyl)-3-methyl-5-oxo-1,5-dihydropyrazol-4-ylidene]hydrazino}-2′-hydroxybiphenyl-3-carboxylic acid] had a negative-log EC50 (pEC50) in the series on human UT7TPO cell line (Homo sapiens, UT7/TPO) of 7.52. In addition, the “activity relative to TPO in the proliferation assay” value in the series with human UT7TPO cell line is reported as 100 % TPO.
As for `Cc1ccc(N2N=C(Cl)C(=NNc3cccc(-c4cccc(C(=O)O)c4)c3O)C2=O)cc1C` [Example 24, 3′-{N′-[3-Chloro-1-(3,4-dimethylphenyl)-5-oxo-1,5-dihydropyrazol-4-ylidene]hydrazino}-2′-hydroxybiphenyl-3-carboxylic acid], the melting point is 210 °C (dec.).
